Read-outs that look alike come from different tables or passages of the source.
What was measured:
Assay type in all cases: in vitro ADME
CYP3A4 = CYP3A4 (Homo sapiens, UniProt P08684); test: Time-dependent inhibition kinetics of CYP3A4 midazolam 1′-hydroxylation in human liver microsomes
Protocol: The kinetic parameters for the time-dependent inhibition potency of APINACA against human liver microsomal CYP3A4 activity were evaluated. Ultrapooled human liver microsomes (1 mg/mL) were preincubated with various concentrations of APINACA (final concentrations of 1–40 μM) in 50 mM potassium phosphate buffer (pH 7.4) in the presence of NADPH. Aliquots (10 μL) of the preincubated mixtures were withdrawn 5, 10, 20, and 30 min after incubation was commenced and were added to other tubes containing 2 μM midazolam, 1 mM NADPH, 50 mM potassium phosphate buffer (pH 7.4), and 10 mM MgCl2 in 90-μL reaction mixtures. The second reactions were terminated after 10 min by adding 100 μL of ice cold methanol containing d9-1′-hydroxybufuralol. […] Aliquots (5 μL) of the diluted supernatants were analyzed by LC–MS/MS.
(§1) 12.5 (Systat Software, Inc.; San Jose, CA, USA). […] 1.1 (Systat Software, Inc.).

UGT1A1 = molecular target: T1, UGT1A1 (Homo sapiens, UniProt P22309); test: biochemical
T1 construct: […]; tissue Corning Life Sciences
T1 sequence (P22309 26-533): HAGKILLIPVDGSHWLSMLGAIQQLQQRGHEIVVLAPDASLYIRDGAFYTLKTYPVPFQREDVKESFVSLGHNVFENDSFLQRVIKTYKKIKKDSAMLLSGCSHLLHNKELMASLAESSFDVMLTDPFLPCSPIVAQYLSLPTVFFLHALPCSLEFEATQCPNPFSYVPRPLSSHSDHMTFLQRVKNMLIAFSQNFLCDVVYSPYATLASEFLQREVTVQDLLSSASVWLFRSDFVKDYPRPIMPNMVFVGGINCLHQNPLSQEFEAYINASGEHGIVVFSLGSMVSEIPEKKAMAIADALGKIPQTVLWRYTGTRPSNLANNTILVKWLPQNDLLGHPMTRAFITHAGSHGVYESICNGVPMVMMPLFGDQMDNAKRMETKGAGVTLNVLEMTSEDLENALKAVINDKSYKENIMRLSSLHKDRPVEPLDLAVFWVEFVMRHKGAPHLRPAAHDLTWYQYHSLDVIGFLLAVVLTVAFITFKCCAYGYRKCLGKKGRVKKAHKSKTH
Description: as §1

UGT1A3 = UGT1A3 (Homo sapiens, UniProt P35503); test: Inhibition of UGT1A3-catalyzed chenodeoxycholic acid 24-acyl-β-glucuronidation in human liver microsomes
Protocol: The inhibitory effect of APINACA and typical UGT inhibitors on UGT1A1, UGT1A3, UGT1A4, UGT1A6, UGT1A9, and UGT2B7 were evaluated following our previous method by LC–MS/MS after incubation of ultrapooled human liver microsomes with a cocktail of UGT substrates [44]. […] The reactions were initiated by adding UDPGA, and the incubation continued for 60 min at 37 °C in a shaking water bath. The reactions were terminated by adding 50 μL of ice-cold acetonitrile containing internal standards (propofol glucuronide for chenodeoxycholic acid 24-acyl-β-glucuronide and mycophenolic acid glucuronide; and meloxicam for SN-38 glucuronide, trifluoperazine glucuronide, N-acetylserotonin β-D-glucuronide, and naloxone 3-β-D-glucuronide). The incubation mixtures were centrifuged at 13,000× g for 8 min at 4 °C. Next, 50 μL of each supernatant of A and B set was mixed, and aliquots (5 μL) were analyzed by LC–MS/MS. All assays were performed in triplicate, and the average values were used in calculations.
To measure the time-dependent inhibition, human liver microsomes were preincubated with the various concentrations of APINACA (final concentrations of 0.1–100 μM) and UDPGA for 30 min at 37 °C. Next, the reaction mixtures were incubated with UGT probe substrate cocktail sets for 60 min at 37 °C. The control reaction was performed by adding methanol instead of the test compounds.

OAT3 = molecular target: T2, OAT3 (Homo sapiens, UniProt Q8TCC7); test: Uptake of [3-H]estrone-3-sulfate in HEK293-OAT3 cells
T2 construct: host or cells: HEK293 (transient overexpression)
T2 sequence (Q8TCC7 1-542): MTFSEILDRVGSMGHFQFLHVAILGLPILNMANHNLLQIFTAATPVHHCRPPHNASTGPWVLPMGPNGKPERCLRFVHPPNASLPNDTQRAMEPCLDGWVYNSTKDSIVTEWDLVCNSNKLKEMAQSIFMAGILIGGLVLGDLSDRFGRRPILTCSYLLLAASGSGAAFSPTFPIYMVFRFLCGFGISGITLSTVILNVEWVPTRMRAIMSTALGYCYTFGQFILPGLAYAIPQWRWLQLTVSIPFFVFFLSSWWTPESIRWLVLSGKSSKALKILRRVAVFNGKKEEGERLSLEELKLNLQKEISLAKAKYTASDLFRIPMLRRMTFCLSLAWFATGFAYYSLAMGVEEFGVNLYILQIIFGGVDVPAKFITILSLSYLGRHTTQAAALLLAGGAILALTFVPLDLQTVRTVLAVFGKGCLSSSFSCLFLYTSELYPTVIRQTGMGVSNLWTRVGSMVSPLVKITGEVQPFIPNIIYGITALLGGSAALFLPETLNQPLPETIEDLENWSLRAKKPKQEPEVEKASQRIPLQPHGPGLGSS
Protocol: The concentrations and probe substrates were selected as follows: 0.1 μM [3-H]MPP^+ (for OCT1 and OCT2), 0.1 μM [3-H]PAH (for OAT1), 0.1 μM [3-H]ES (for OAT3 and OATP1B1), and 0.1 μM [3-H]EG (for OATP1B3).
1.1 (Systat Software, Inc.).

UGT1A9 = molecular target: T3, UGT1A9 (Homo sapiens, UniProt O60656); test: Enzyme kinetic analysis of UGT1A9 inhibition (Dixon plot) in human liver microsomes; set-up: […]; tissue Corning Life Sciences
T3 sequence (O60656 26-530): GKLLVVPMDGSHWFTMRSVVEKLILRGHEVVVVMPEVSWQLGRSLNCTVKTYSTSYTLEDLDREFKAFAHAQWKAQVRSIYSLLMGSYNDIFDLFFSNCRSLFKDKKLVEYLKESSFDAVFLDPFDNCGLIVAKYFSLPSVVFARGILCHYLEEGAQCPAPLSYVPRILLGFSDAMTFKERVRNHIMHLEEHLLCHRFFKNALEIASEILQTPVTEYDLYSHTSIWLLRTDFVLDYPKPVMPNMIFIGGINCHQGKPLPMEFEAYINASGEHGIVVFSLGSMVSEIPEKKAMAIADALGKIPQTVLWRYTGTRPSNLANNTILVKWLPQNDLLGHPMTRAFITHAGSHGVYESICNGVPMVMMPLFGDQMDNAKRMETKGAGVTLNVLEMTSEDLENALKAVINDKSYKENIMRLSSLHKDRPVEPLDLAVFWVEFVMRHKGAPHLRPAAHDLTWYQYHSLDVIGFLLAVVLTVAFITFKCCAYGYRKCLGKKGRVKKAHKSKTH
Protocol: The reaction was stopped by adding 100 μL of ice cold acetonitrile containing propofol glucuronide (internal standard), and the mixtures were centrifuged at 13,000× g for 4 min.
as §1

Chain of UGT1A3 (P35503 29-534): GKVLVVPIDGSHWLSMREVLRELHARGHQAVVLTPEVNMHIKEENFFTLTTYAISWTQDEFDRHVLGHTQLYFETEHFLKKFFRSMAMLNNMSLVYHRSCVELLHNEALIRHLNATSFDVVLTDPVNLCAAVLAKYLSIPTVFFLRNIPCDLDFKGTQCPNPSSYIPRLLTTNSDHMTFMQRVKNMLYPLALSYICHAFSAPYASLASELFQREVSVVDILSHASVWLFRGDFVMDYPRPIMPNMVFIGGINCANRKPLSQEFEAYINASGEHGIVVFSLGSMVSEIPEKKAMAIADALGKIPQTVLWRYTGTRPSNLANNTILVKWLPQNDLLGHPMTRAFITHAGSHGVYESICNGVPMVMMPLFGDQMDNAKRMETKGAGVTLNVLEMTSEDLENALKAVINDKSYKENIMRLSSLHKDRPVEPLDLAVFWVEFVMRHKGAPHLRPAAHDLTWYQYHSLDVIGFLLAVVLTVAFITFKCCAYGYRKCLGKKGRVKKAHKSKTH
Chain of CYP3A4 (P08684 2-503): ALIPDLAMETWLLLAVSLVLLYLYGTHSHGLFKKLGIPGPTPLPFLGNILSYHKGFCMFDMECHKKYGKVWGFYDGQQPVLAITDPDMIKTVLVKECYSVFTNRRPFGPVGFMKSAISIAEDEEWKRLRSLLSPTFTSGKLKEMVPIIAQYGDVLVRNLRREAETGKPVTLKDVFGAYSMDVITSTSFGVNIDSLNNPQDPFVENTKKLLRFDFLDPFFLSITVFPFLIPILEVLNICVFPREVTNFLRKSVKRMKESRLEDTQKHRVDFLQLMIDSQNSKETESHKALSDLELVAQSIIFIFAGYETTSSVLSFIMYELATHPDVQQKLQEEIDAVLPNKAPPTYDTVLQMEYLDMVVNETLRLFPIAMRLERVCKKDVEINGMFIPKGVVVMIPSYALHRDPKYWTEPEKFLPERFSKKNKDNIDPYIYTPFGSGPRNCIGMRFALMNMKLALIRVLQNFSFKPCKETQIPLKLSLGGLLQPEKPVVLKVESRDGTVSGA

CCCCCn1nc(C(=O)NC23CC4CC(CC(C4)C2)C3)c2ccccc21 [APINACA, N-(1-adamantyl)-1-pentyl-1H-indazole-3-carboxamide]
inactivation efficiency (kinact/Ki) for time-dependent inhibition of CYP3A4 (CYP3A4; human liver microsomes): 173 M⁻¹ s⁻¹ | kinact (CYP3A4; pH 7.4, probe midazolam 2 μM (1′-hydroxylation), ultrapooled human liver microsomes, time-dependent inhibition, read-out: kinact for time-dependent inhibition of CYP3A4-catalyzed midazolam 1′-hydroxylase (converted)): 0.000781 s⁻¹ | IC50 (UGT1A1): > 100 µM | IC50 (UGT1A1; read-out: IC50 UGT1A1 SN-38 glucuronidation, with 30-min preincubation, pooled human liver microsomes, 30-min preincubation with UDPGA (○)): > 100 µM | IC50 (UGT1A3): > 100 µM | IC50 (UGT1A3; read-out: IC50 UGT1A3 chenodeoxycholic acid glucuronidation, with 30-min preincubation, pooled human liver microsomes, 30-min preincubation with UDPGA (○)): > 100 µM | IC50 (OAT3): > 250 µM | Ki (UGT1A9): 5.9 µM | mode of inhibition of UGT1A9-catalyzed mycophenolic acid glucuronidation (UGT1A9; human liver microsomes, enzyme kinetics study): noncompetitively inhibited

Source: publication PMC6720883, “In Vitro Inhibitory Effects of APINACA on Human Major Cytochrome P450, UDP-Glucuronosyltransferase Enzymes, and Drug Transporters” (Molecules, 2019)
